Patent US4254285A, “1-Hydroxymethyl-1-1-oxo prostane derivatives of the E and F series” (American Cyanamid Company, priority 1979, dated 1981)

Experiments:
[1] = system: platelet aggregation induced by adenosine diphosphate; experiment: Inhibition of platelet aggregation in vitro, adenosine diphosphate; assay type: cell-based; conditions: 0.025 mg/ml, human plasma
From the text: (§1) It is well known that platelet aggregation inhibitors may be useful as anti-thrombotic drugs. Inhibition of platelet aggregation can be conveniently measured in vitro by monitoring changes in optical density and/or light transmission in platelet rich plasma upon addition of suitable aggregating agents such as adenosine diphosphate, epinephrine, thrombin or collagen. Alternatively, platelet aggregation can be measured in vitro using platelet rich plasma obtained at various time intervals from animals given inhibitors by an oral or parenteral route.
(§2) […] is incubated with modified Tyrode's solution in a proportion of 40-50% human protein rich plasma. The test compounds are added at varying concentrations and after 5 minutes incubation, an aggregating agent such as adenosine diphosphate or collagen is added. The change in optical density (light transmission) is monitored by eye and inhibition is recorded as a (-) or lack of inhibition is recorded as a (+). Test compounds are considered active if they inhibit adenosine diphosphate or collagen induced aggregation at a concentration of 0.025 mg/ml or less within 5-10 minutes.

[2] = system: platelet aggregation induced by collagen; experiment: Inhibition of platelet aggregation in vitro, collagen; assay type: cell-based; conditions: 0.025 mg/ml, human plasma
From the text: as §1, §2

## CCCCCC(O)/C=C/C1CCC(=O)C1CCCCCCC(=O)CO (centres unmarked)
[1]
  inhibition of platelet aggregation: shows inhibition of platelet aggregation
[2]
  inhibition of platelet aggregation: shows inhibition of platelet aggregation
